This note sets out measurements from US11407719B2, “Anti-inflammatory agents” (Resverlogix Corp., priority 2009, dated 2022).

One series has as its system hIL-6 mRNA. In words: Quantification of hIL-6 mRNA. The format is cell-based, human. Details: key: Active: an active compound is one that causes a ≥20% inhibition in IL-6 mRNA at a concentration less than or equal to 10 μM. As to conditions: IL-6 mRNA by real-time PCR; differentiated U937 cells, 1 h pretreatment, lipopolysaccharide stimulation 3 h; concentration ≤10 μM. The method in brief: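 U937 cells, differentiated for 3 days, were pretreated with compound for 1 h and then stimulated with E. coli LPS for 3 h at 37 °C. IL-6 mRNA was quantified by one-step qRT-PCR, with Ct normalized to an internal control, and fold induction was expressed relative to control.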
(In qPCR the cycle at which signal appears reflects the starting amount.)

The next series relates to VCAM-1 mRNA. Briefly: Quantification of hVCAM mRNA. In kind it is cell-based, human. Further details: key: Active: an active compound is one that causes a ≥20% inhibition in VCAM-1 mRNA at a concentration less than or equal to 10 μM; -1 mRNA at a concentration less than or equal to 10 μM. As to conditions: VCAM-1 mRNA by real-time PCR; HUVECs, 1 h pretreatment, tumor necrosis factor-α stimulation 24 h; concentration ≤10 μM. The method in brief:
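HUVECs were pretreated 1 h with compound, then stimulated with TNF-α and harvested 24 h later. Isolated mRNA went into one-step qRT-PCR. hVCAM Ct values were normalized to an internal control and expressed as fold induction relative to control.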

By melting point is commonly meant the temperature of the solid-liquid transition. `Cc1cc(-c2nc3cccc(Cl)c3c(=O)[nH]2)cc(C)c1OCCN1CCCC1` [5-Chloro-2-(3,5-dimethyl-4-(2-(pyrrolidin-1-yl)ethoxy)phenyl)quinazolin-4(3H)-one]: the melting point lay within 179 to 180 °C. Also, the “Inhibition of IL-6 expression” value in the series with hIL-6 mRNA is on record as “Active”. The “Inhibition of VCAM-1 expression” value in the series on VCAM-1 mRNA is listed as “Active”.
Turning to `COCCOc1cc(OC)c2c(=O)[nH]c(-c3ccnc(C)c3)nc2c1` [5-methoxy-7-(2-methoxyethoxy)-2-(2-methylpyridin-4-yl)quinazolin-4(3H)-one], the melting point was 260 to 262 °C. The “Inhibition of IL-6 expression” value in the series with hIL-6 mRNA was “Active”. In addition, in the series with VCAM-1 mRNA, the “Inhibition of VCAM-1 expression” value is on record as “Active”.
Compound `COc1cc(OCCOCc2ccccc2)cc2nc(-c3cc(C)nc(C)c3)[nH]c(=O)c12` [7-(2-(Benzyloxy)ethoxy)-2-(2,6-dimethylpyridin-4-yl)-5-methoxyquinazolin-4(3H)-one] displayed a melting point of 178 to 180 °C. Moreover, the “Inhibition of IL-6 expression” value in the series on hIL-6 mRNA is given as “Active”. In addition, the “Inhibition of VCAM-1 expression” value with VCAM-1 mRNA is listed as “Active”.
`COc1cc(OCCOCc2ccccc2)cc2nc(-c3ccncc3)[nH]c(=O)c12` [7-(2-(Benzyloxy)ethoxy)-5-methoxy-2-(pyridin-4-yl)quinazolin-4(3H)-one]: the melting point was 228.2 to 229.9 °C. In the series with hIL-6 mRNA, the “Inhibition of IL-6 expression” value is recorded as “Active”. In the series with VCAM-1 mRNA, the “Inhibition of VCAM-1 expression” value is on record as “Active”.
Take `COc1cc(OCCNC(C)=O)cc(-c2nc3cc(OC)cc(OC)c3c(=O)[nH]2)c1` [N-(2-(3-(5,7-dimethoxy-4-oxo-3,4-dihydroquinazolin-2-yl)-5-methoxyphenoxy)ethyl)acetamide]: the melting point lay within 264 to 265 °C. For the same compound, the “Inhibition of IL-6 expression” value in the series on hIL-6 mRNA is “Active”. The “Inhibition of VCAM-1 expression” value in the series on VCAM-1 mRNA was “Active”.
